# The PolyMetriX glass transition set
# ± gives the standard deviation of the reports.
row,glass transition temperature,Compound
1,98.00 °C,*CCN(CCOC(=O)Nc1ccc(C)c(NC(=O)O*)c1)c1ccc([N+](=O)[O-])cc1C (repeat unit)
2,156.00 °C,*CC(*)c1ccc(C([Si](C)(C)C)[Si](C)(C)C)cc1 (repeat unit)
3,300.00 °C,*Oc1ccc(S(=O)(=O)c2ccc3cc(S(=O)(=O)c4ccc(Oc5c(C)cc(-c6cc(C)c(*)c(C)c6C)c(C)c5C)cc4)ccc3c2)cc1 (repeat unit)
4,158.00 °C,*Oc1ccc(Oc2ccc(S(=O)(=O)c3ccc(Oc4ccc(Oc5cccc(*)n5)cc4)cc3)cc2)cc1 (repeat unit)
5,175.00 °C,*c1cccc(OCCCCOc2cccc(N3C(=O)c4ccc(-c5ccc6c(c5)C(=O)N(*)C6=O)cc4C3=O)c2)c1 (repeat unit)
6,73.00 °C,*CCCCCCOC(=O)OCCCCCCN1C(=O)c2ccc(-c3ccc(-c4ccc5c(c4)C(=O)N(*)C5=O)cc3)cc2C1=O (repeat unit)
7,96.00 °C,*Oc1c(C)cc(-c2cc(C)c(OC(=O)CCCCCC(*)=O)c(C)c2)cc1C (repeat unit)
8,127.00 °C,*CC(*)(C)C(=O)Oc1ccc(C(=O)/C=C/c2ccc(Cl)cc2)cc1 (repeat unit)
9,72.50 °C,*Oc1ccc(NC(=O)CCCCCCC(=O)Nc2ccc(OC3COC4C(*)COC34)cc2)cc1 (repeat unit)
10,220.00 °C,*c1ccc(Cc2ccc(N3C(=O)c4ccc([Si](C)(C)O[Si](C)(C)O[Si](C)(C)c5ccc6c(c5)C(=O)N(*)C6=O)cc4C3=O)cc2)cc1 (repeat unit)
11,285.00 °C,*C(=O)c1ccc2c(c1)C(=O)N(c1ccccc1Cc1ccccc1N1C(=O)c3ccc(*)cc3C1=O)C2=O (repeat unit)
12,68.00 °C,*CC(*)(C)C(=O)OCCCOc1ccc(C(=O)Oc2ccc3ccc(=O)oc3c2)cc1 (repeat unit)
13,182.00 °C,*CC(*)(C)C(=O)OCCn1c2ccccc2c2cc(/N=N/c3ccc([N+](=O)[O-])cc3[N+](=O)[O-])ccc21 (repeat unit)
14,48.00 °C,*OCCOC(=O)CCCCC(=O)OCCOc1nc(-c2ccc(OC)cc2)nc(*)c1-c1ccc(OC)cc1 (repeat unit)
15,81.00 °C,*Oc1ccc(C(c2ccc(OC(=O)Nc3ccc(Cc4ccc(NC(*)=O)cc4)cc3)cc2)(C(F)(F)F)C(F)(F)F)cc1 (repeat unit)
16,265.00 °C,*c1ccc2c(c1)C(=O)N(C1CCC(CC3CCC(N4C(=O)c5ccc(C(*)(C(F)(F)F)C(F)(F)F)cc5C4=O)CC3)CC1)C2=O (repeat unit)
17,212.00 °C,*C(=O)Nc1ccc(C(=O)c2ccc(NC(=O)c3ccc4c(c3)C(=O)N(c3ccc(NC(=O)Nc5ccc(N6C(=O)c7ccc(*)cc7C6=O)cc5)cc3)C4=O)cc2)cc1 (repeat unit)
18,60.00 °C,*OC(=O)/C=C/C(=O)OC1COC2C(*)COC12 (repeat unit)
19,55.00 °C,*CCCCCCCOC(=O)NCCCCCCNC(=O)O* (repeat unit)

row,glass transition temperature,Compound
1,328.00 °C,*c1ccc(-c2ccc(-n3c(=O)c4cc5c(=O)n(*)c(=O)c5cc4c3=O)cc2OC)c(OC)c1 (repeat unit)
2,226.00 °C,*CC(=O)Nc1ccc(Oc2cccc(NC(=O)CN3C(=O)c4ccc(C(=O)c5ccc6c(c5)C(=O)N(*)C6=O)cc4C3=O)c2)cc1 (repeat unit)
3,2.00 °C,*CC(=O)NCCCCCCNC(=O)COC(=O)CCCCCCCCC(=O)O* (repeat unit)
4,232.00 °C,*CC(=O)Nc1ccc(S(=O)(=O)c2ccc(NC(=O)c3ccc4c(c3)C(=O)N(*)C4=O)cc2)cc1 (repeat unit)
5,193.00 °C,*C(=O)Nc1cccc2cccc(N3C(=O)CC(N4C(=O)c5ccc(*)cc5C4=O)C3=O)c12 (repeat unit)
6,161.00 °C,*Oc1ccc(C(c2ccccc2)(c2ccccc2)c2ccc(OC(=O)OC3C(C)(C)C(OC(*)=O)C3(C)C)cc2)cc1 (repeat unit)
7,202.00 °C,*c1ccc(Cc2ccc(-n3nccc3-c3ccc(-c4ccnn4*)cc3)cc2)cc1 (repeat unit)
8,367.00 ± 17 °C,*c1ccc2c(c1)C(=O)N(c1cc(C)c(N3C(=O)c4ccc(C(*)(C(F)(F)F)C(F)(F)F)cc4C3=O)cc1C)C2=O (repeat unit)
9,43.50 °C,*OC(=O)c1cccc(OCCCCCCOc2cccc(C(=O)OC3COC4C(*)COC34)c2)c1 (repeat unit)
10,61.10 °C,*CCCCCCCCCCCCOc1c(OC)cc(/C=C/c2ccc(/C=C/c3cc(OC)c(O*)c(OC)c3)cc2)cc1OC (repeat unit)
11,30.00 °C,*CC(O)COC(=O)CCCCCCCCC(=O)OCC(O)COc1ccc(/C=C(\C)c2ccc(O*)cc2)cc1 (repeat unit)
12,150.00 °C,*Nc1ccc(Cc2ccc(NC(=O)c3cc(NC(=O)CCCCCCCCCCN4C(=O)c5ccccc5C4=O)cc(C(*)=O)c3)cc2)cc1 (repeat unit)
13,358.00 °C,*c1ccc(N(c2ccc(C#N)cc2)c2ccc(N3C(=O)c4ccc(-c5ccc6c(c5)C(=O)N(*)C6=O)cc4C3=O)cc2)cc1 (repeat unit)
14,-12.60 °C,*c1cc(-c2ccc(C(=C3C=C(C(C)(C)C)C(=O)C(C(C)(C)C)=C3)c3cc(C(C)(C)C)c(O)c(C(C)(C)C)c3)cc2)c(*)s1 (repeat unit)
15,370.00 °C,*c1ccc(Oc2ccc(N3C(=O)c4cc(-c5ccc(C(C)(C)C)cc5)c(-c5cc6c(cc5-c5ccc(C(C)(C)C)cc5)C(=O)N(*)C6=O)cc4C3=O)cc2)cc1 (repeat unit)
16,-9.00 °C,*CCC(C)(C)CC(C)COC(=O)c1ccc(C(=O)O*)cc1 (repeat unit)
17,-5.00 °C,*c1nc(C(F)(F)C(F)(F)C(F)(F)F)nc(C(F)(F)C(F)(F)C(F)(F)C(F)(F)C(F)(F)C(*)(F)F)n1 (repeat unit)
18,217.00 °C,*c1ccc(Cc2ccc(-n3c(=O)c4cc5c(=O)n(*)c(=O)c5cc4c3=O)c(C(C)(C)C)c2)cc1C(C)(C)C (repeat unit)
19,235.00 °C,*Oc1ccc(S(=O)(=O)c2ccc(Oc3ccc(/C=C4\CC/C(=C\c5ccc(*)cc5)C4=O)cc3)cc2)cc1 (repeat unit)

row,Compound,glass transition temperature
1,*CC(*)c1ccc(C(C)(C)C)cc1 (repeat unit) [Poly(p-t-butyl styrene)],129 ± 5.6 °C
2,*/C=C/C1CC(*)C(C#N)(CC)C1 (repeat unit),134.00 °C
3,*OC1CCC(OC(*)=O)CC1 (repeat unit),138.00 °C
4,*CCSSSS* (repeat unit),-24.00 °C
5,*CC(*)Cc1ccc(C)cc1 (repeat unit),65.00 °C
6,*C(=O)c1ccc2c(c1)C(=O)N(c1cccc(P(=O)(c3ccccc3)c3cccc(N4C(=O)c5ccc(*)cc5C4=O)c3)c1)C2=O (repeat unit),273.00 °C
7,*CC(SS*)c1ccccc1 (repeat unit),4.80 °C
8,*CCCN(*)C(=O)CCCCC (repeat unit),-16.00 °C
9,*C/C=C/C(CC)S(*)(=O)=O (repeat unit),70.10 °C
